Reference: US11950592B2, “Method for enhancing plant disease controlling effects of aryl phenyl ketone fungicide, and method for controlling plant diseases” (ISHIHARA SANGYO KAISHA, LTD., priority 2016, dated 2024)

Assays:
Assay type in all cases: in vivo
[1] = test system: Sphaerotheca fuliginea; test: Test Example 6: curative effect against cucumber powdery mildew; conditions: no addition
Protocol: (§1) Cucumber (cultivar: Sagamihanjiro Fushinari) was cultivated in a polyethylene pot having a diameter of 7.5 cm, and when the cucumber reached 1.5 leaf stage, the leaf adaxial surface was sprayed and inoculated with a suspension of conidia of Sphaerotheca fuliginea, the cucumber was cultivated in a room at 20° C. under the light for 3 days, and a chemical solution containing pyriofenone (dosage: 90 g ai/ha) or metrafenone (300 g ai/ha) prepared with an aqueous solution containing each product (0.01 to 5.0 v/v°/0) was applied (amount of solution applied: 800 L/ha) to the leaf adaxial surface by a spray gun. After the chemical solution dried, the cucumber was cultivated in a room at 20° C. under the light for 6 days. The lesion area ratio on the first leaf was examined, and the control value was calculated based on the following formula. Control value=(1−a/b)×100
(§2) a: lesion area ratio in treated plot, b: lesion area ratio in non-treated plot

[2] = test system: Sphaerotheca fuliginea; test: Test Example 9: curative effect against cucumber powdery mildew; conditions: no addition
Protocol: as §1, with “(0.005” for “(0.01”, “1.0” for “5.0”, “7” for “6”
as §2

[3] = test system: Sphaerotheca fuliginea; test: Test Example 5: curative effect against cucumber powdery mildew; conditions: no addition
Protocol: as §1, with “(0.025” for “(0.01”, “4.0” for “5.0”, “7” for “6”
as §2

[4] = test system: Sphaerotheca fuliginea; test: Test Example 7: curative effect against cucumber powdery mildew; conditions: no addition
Protocol: as §1, with “(0.02” for “(0.01”, “0.07” for “5.0”, “5” for “6”
as §2

[5] = test system: Sphaerotheca fuliginea; test: Test Example 8: curative effect against cucumber powdery mildew; conditions: no addition
Protocol: as §1, with “(0.001” for “(0.01”, “7” for “6”
as §2

[6] = test system: Sphaerotheca fuliginea; test: Test Example 1: curative effect against cucumber powdery mildew with different temperatures; conditions: pyriofenone 90 g ai/ha, no component (b)
Protocol: (§3) Cucumber (cultivar: Sagamihanjiro Fushinari) was cultivated in a polyethylene pot having a diameter of 7.5 cm, and when the cucumber reached 1.5 leaf stage, the leaf adaxial surface was sprayed and inoculated with a suspension of conidia of Sphaerotheca fuliginea, the cucumber was cultivated in a room at 20° C. or 28° C. under the light for 3 days, and a chemical solution containing pyriofenone was applied (dosage: 90 g ai/ha, amount of solution applied: 800 L/ha) to the leaf adaxial surface by a spray gun. After the chemical solution dried, the cucumber was cultivated in a room at 20° C. or 28° C. under the light for 6 days. The lesion area ratio on the adaxial surface of the first leaf was examined, and the control value was calculated based on the following formula. Control value=(1−a/b)×100
as §2

[7] = test system: Sphaerotheca fuliginea; test: Test Example 13: penetration effect against cucumber powdery mildew; conditions: pyriofenone 90 g ai/ha, no addition
Protocol: (§4) Cucumber (cultivar: Sagamihanjiro Fushinari) was cultivated in a polyethylene pot having a diameter of 7.5 cm, and when the cucumber reached 1.5 leaf stage, a chemical solution containing pyriofenone (dosage: 90 g ai/ha) prepared with an aqueous solution containing each product (0.015 to 1.0 v/v°/0) was applied (amount of solution applied: 800 L/ha) to the leaf adaxial surface by a spray gun. After the chemical solution dried, the cucumber was cultivated in a room at 20° C. under the light for 3 days, the leaf abaxial surface was sprayed and inoculated with a suspension of conidia of Sphaerotheca fuliginea, and the cucumber was cultivated in a room at 20° C. under the light for 7 days. The lesion area ratio on the abaxial side of the first leaf was examined, and the control value was calculated based on the following formula. Control value=(1−a/b)×100
as §2

[8] = test system: Sphaerotheca fuliginea; test: Test Example 12: curative effect against cucumber powdery mildew; conditions: pyriofenone 90 g ai/ha, no addition
Protocol: as §4, with “stage, the leaf adaxial surface was sprayed and inoculated with a suspension of conidia of Sphaerotheca fuliginea, the cucumber was cultivated in a room at 20° C. under the light for 4 days, and” for “stage,”, “0.5 v/v %)” for “1.0 v/v°/0)”, “6” for “3 days, the leaf abaxial surface was sprayed and inoculated with a suspension of conidia of Sphaerotheca fuliginea, and the cucumber was cultivated in a room at 20° C. under the light for 7”, “on” for “on the abaxial side of”
as §2

[9] = test system: Sphaerotheca fuliginea; test: Test Example 10: penetration effect against cucumber powdery mildew; conditions: pyriofenone 90 g ai/ha, no addition
Protocol: as §4, with “to 4.0 v/v %)” for “to 1.0 v/v°/0)”, “for 4” for “for 3”, “for 8” for “for 7”
as §2

[10] = test system: Sphaerotheca fuliginea; test: Test Example 2: curative effect against cucumber powdery mildew; conditions: pyriofenone 90 g ai/ha, no addition
Protocol: Cucumber (cultivar: Sagamihanjiro Fushinari) was cultivated in a polyethylene pot having a diameter of 7.5 cm, and when the cucumber reached 1.5 leaf stage, the leaf adaxial surface was sprayed and inoculated with a suspension of conidia of Sphaerotheca fuliginea, the cucumber was cultivated in a room at 20° C. under the light for 3 days, and a chemical solution containing pyriofenone prepared with an aqueous solution containing each product (0.5 v/v°/0) was applied (dosage: 90 g ai/ha, amount of solution applied: 800 L/ha) to the leaf adaxial surface by a spray gun. After the chemical solution dried, the cucumber was cultivated in a room at 20° C. under the light for 6 days. The lesion area ratio on the adaxial surface of the first leaf was examined, and the control value was calculated based on the following formula. In Tables, “no addition” means the above treatment without adding the component (b) (the same applies hereinafter). Control value=(1−a/b)×100
as §2

[11] = test system: Oidiopsis sicula Scalia; test: Test Example 11: curative effect against sweet pepper powdery mildew; conditions: no addition
Excerpt: Sweet pepper (cultivar: Kyonami) was cultivated in a polyethylene pot having a diameter of 7.5 cm, and when the sweet pepper reached 8.5 leaf stage, the sweet pepper was dusted and inoculated with a suspension of conidia of Oidiopsis sicula Scalia, the sweet pepper was cultivated in a greenhouse under the light for 3 days, and a chemical solution containing pyriofenone (dosage: 90 g or 110 g ai/ha) prepared with an aqueous solution containing each product (0.07 to 4.0 v/v %) was applied (amount of solution applied: 600 L/ha) to the leaf adaxial surface by a spray gun. After the chemical solution dried, the cucumber was cultivated in a greenhouse under the light for 17 days. Each of eight lower leaves was investigated, and the disease severity was calculated in accordance with the following index. Further, the control value was calculated from the disease severity.
Disease index 0: No spore formation
Disease index 1: Formation of lesion (spores, foot cells, conidiogenous cells) is observed on the leaf abaxial side with an area of less than 10%.
Disease index 2: Formation of lesion (spores, foot cells, conidiogenous cells) is observed on the leaf abaxial side with an area of from 10% to 25%.
Disease index 3: Formation of lesion (spores, foot cells, conidiogenous cells) is observed on the leaf abaxial side with an area of from 26% to 50%. […]

[12] = test system: Sphaerotheca fuliginea; test: Test Example 3: curative effect against cucumber powdery mildew; conditions: pyriofenone 90 g ai/ha, no addition
Protocol: as §3, with “C.” for “C. or 28° C.”, “pyriofenone prepared with an aqueous solution containing each product (0.05 to 0.25 v/v°/0)” for “pyriofenone”, “on” for “on the adaxial surface of”
as §2

[13] = test system: Sphaerotheca fuliginea; test: Test Example 4: curative effect against cucumber powdery mildew; conditions: pyriofenone 90 g ai/ha, no addition
Protocol: Cucumber (cultivar: Sagamihanjiro Fushinari) was cultivated in a polyethylene pot having a diameter of 7.5 cm, and when the cucumber reached 1.5 leaf stage, the leaf adaxial surface was sprayed and inoculated with a suspension of conidia of Sphaerotheca fuliginea, the cucumber was cultivated in a room at 20° C. under the light to for 3 days, and a chemical solution containing pyriofenone prepared with an aqueous solution containing each product (0.025 to 0.25 v/v°/0) was applied (dosage: 90 g ai/ha, amount of solution applied: 800 L/ha) to the leaf adaxial surface by a spray gun. After the chemical solution dried, the cucumber was cultivated in a greenhouse for 4 days and then cultivated in a room at 20° C. under the light for 5 days. The lesion area ratio on the first leaf was examined, and the control value was calculated based on the following formula. Control value=(1−a/b)×100
as §2

`COc1cc(C)c(C(=O)c2c(OC)ccc(Br)c2C)c(OC)c1OC` [Metrafenone, metrafenone] was tested, and the “Control value Metrafenone” value ([1]; metrafenone 300 g ai/ha) was 60.2, the “Control value Metrafenone” value ([2]; metrafenone 300 g ai/ha) was 75 and the “Control value Metrafenone” value ([3]; metrafenone 300 g ai/ha) was 65.7. The “Control value Metrafenone” value ([4]; metrafenone 300 g ai/ha) was 65 and the “Control value Metrafenone” value ([5]; metrafenone 300 g ai/ha) was 60.
For `COc1cc(C)c(C(=O)c2c(OC)ncc(Cl)c2C)c(OC)c1OC` [Pyriofenone, pyriofenone], the Control value ([6]; 20° C.) was 53, the Control value ([6]; 28° C.) was 80 and the Control value [7] was 40. For the same compound, the Control value [8] was 68, the Control value [9] was 12 and the Control value [10] was 55. The “Control value Pyriofenone” value ([1]; pyriofenone 90 g ai/ha) was 71.6, the “Control value Dosage (g ai/ha) 90” value ([11]; pyriofenone 90 g ai/ha) was 7.6 and the “Control value Dosage (g ai/ha) 110” value ([11]; pyriofenone 110 g ai/ha) was 6.1. For the same compound, the “Control value Pyriofenone” value ([2]; pyriofenone 90 g ai/ha) was 70, the “Control value Pyriofenone” value ([3]; pyriofenone 90 g ai/ha) was 63 and the Control value [12] was 55. The “Control value Pyriofenone” value ([4]; pyriofenone 90 g ai/ha) was 65, the Control value [13] was 30 and the “Control value Pyriofenone” value ([5]; pyriofenone 90 g ai/ha) was 65.
